# US4443619A, “Chlorocitric acids” (Hoffmann-La Roche Inc., priority 1981, dated 1984)
# Legend:
# [1] = system: Cholesterol Synthesis; assay: Cholesterol synthesis in isolated rat hepatocytes (Example 23); format: cell-based, rat (female Charles River); conditions: 2 mM, 60 min, 37° C., 2000 µM
# Description: Female Charles River rats were fasted 48 hr, then meal-fed a 1% corn oil, 70% glucose diet for 7 to 14 days from 8 to 11 a.m. The isolated rat hepatocytes were prepared by perfusing the liver in situ. The hepatocytes were incubated in an oscillating water bath at 37° C. for 60 min. […] All incubations were done in triplicate and all experiments were repeated at least twice. […] The contents of the center well were transferred to scintillation counting fluid and ^14 CO2 content was determined. […] The media was then acidified, extracted with hexane, and the extract counted (to determine the rate of lipogenesis). The conversion of ^3 H2 O and [^14 C]alanine into fatty acids or sterols was determined in a PDS/3, Mark II liquid scintillation counting system.
# [2] = Anorectic activity, body weight and carcass analysis in mammals (summary statements); format: in vivo
smiles,measurement,setting,value
"O=C(O)C[C@@](O)(C(=O)O)[C@@H](Cl)C(=O)O [(-)-threo-Chlorocitric acid, (-)-threo-chlorocitric acid]","Cholesterol Synthesis, 3H2O converted",[1],98 % of control
same,anorectic activity as measured by reduction in food consumption,"[2]; acute meal-fed assay utilizing three diets and pyramiding dose studies, compared with hydroxycitric acid",significantly more active
same,carcass analysis: origin of weight loss,[2]; chronic studies,weight loss was due to reduction in body lipids
same,appetite suppression and reduced body weight gain,"[2]; short- and long-term chronic studies, compared with hydroxycitric acid or citric acid",suppressed appetite and reduced body weight gain in mammals more efficaciously than hydroxycitric acid or citric acid
